Test results: patent US6448273B1, “Orally active iron (III) chelators” (BTG International Limited, priority 1997, dated 2002)
Where a name gives a salt, the structure may show the parent alone. Read-outs that look alike come from different tables or passages of the source.

Tests used:
[1] = Iron III Mobilisation Efficacy Assay in Rat: Oral Administration; type: in vivo; conditions: for Efficacy: iron mobilisation less control
Procedure: Control rats were given an equivalent volume of water. The rats were placed in individual metabolic cages and their urine and faeces collected. One hour after the administration they were allowed access to food, with no restriction on water being made throughout the study period. The investigation was terminated 24 hours after the ^59Fe ferritin administration when rats were sacrificed and their livers and gastrointestinal tracts, including all contents including faeces, were removed for gamma counting.

[2] = in vivo; cited from earlier work
[3] = Iron (III) complex stability constant Logβ3; type: physicochemical
[4] = cited from earlier work
[5] = pM for Iron III (affinity for iron as Fe III); type: physicochemical; conditions: negative log ferric ion concentration; total iron 10^-6 M, ligand 10^-5 M
Source text: The present inventors now have provided a group of 3-hydroxypyridin-4-one iron chelators having improved properties as compared to the prior art as assessed against the criteria set out above. […] Preferred compounds have efficiency of iron mobilisation of in excess of 52% when given orally to rats. […]

[6] = Distribution coefficient DpH7.4 (Kpart), octanol/MOPS pH 7.4; type: physicochemical
Source text: The requirements for orally active chelators are set out in Table 4 of Hider et al as (i) good absorption from tile gastrointestinal tract, (ii) efficient liver extraction, (iii) poor entry into peripheral cells such as thymus, muscle, heart and bone marrow and (iv) poor ability to penetrate the blood-brain barrier and maternal/placental barriers.

pKa of the ligand = type: physicochemical
[7] = method marked (p), first pKa, read-out: pKa, first value (p)
[8] = method marked (p), second pKa, read-out: pKa, second value (p)
[9] = method marked (s), second pKa, read-out: pKa, second value (s)
[10] = method marked (s), first pKa, read-out: pKa, first value (s)

| SMILES | Logβ3 [3] | pMpH 7.45 [5] | DpH 7.4 [6] | pKa, first value (s) (pKa of the ligand; method marked (s), first pKa) | pKa, second value (s) (pKa of the ligand; method marked (s), second pKa) | pKa (pKa of the ligand; [7]) | pKa (pKa of the ligand; [8]) | pKa (pKa of the ligand; [9]) | pKa (pKa of the ligand; [10]) | melting point | Iron Mobilisation ([1]; 150 μmol/kg) | Efficacy ([1]; 150 μmol/kg) | Iron Mobilisation ([1]; 300 μmol/kg) | Efficacy ([1]; 300 μmol/kg) | Iron Mobilisation ([1]; 450 μmol/kg) | Efficacy ([1]; 450 μmol/kg) | crossing of placenta and blood brain barrier [2] | phase II metabolism [2] | effectiveness in man [4] |
| --- | --- | --- | --- | --- | --- | --- | --- | --- | --- | --- | --- | --- | --- | --- | --- | --- | --- | --- | --- |
| CCc1c(O)c(=O)ccn1CC [CP94, 1,2-diethyl-3-hydroxypyridin-4-one, reference compound] | 36.7 | 19.7 | 1.79 | – | – | – | – | – | – | – | 16.5 ± 6.2% | 12.6% | 35.7 ± 4.4% | 31.8% | 59.7 ± 10.9% | 55.8% | able to cross the placenta and blood brain barrier | rapidly inactivated by phase II metabolism | effective in man |
| Cc1cc(=O)c(O)c(CO)n1C [CP360, 1,6-Dimethyl-2-hydroxymethyl-3-hydroxy-pyridin-4(1H)-one hydrochloride] | 35.51 | 20.43 | 0.098 | 3.37 | 9.42 | – | – | – | – | – | – | – | – | – | – | – | – | – | – |
| CCC(O)c1c(O)c(=O)cc(C)n1C (centres unmarked) [CP374, 1,6-Dimethyl-2-(1-hydroxypropyl)-3-hydroxy-pyridin-4(1H)-one hydrochloride] | 35.03 | 20.95 | 0.73 | – | 8.98 | 2.76 | – | – | 2.78 | – | 34.0 ± 4.3% | 30.1% | – | – | 60.4 ± 15.6% | 56.5% | – | – | – |
| Cc1c(O)c(=O)ccn1C [CP20, reference compound] | 36.3 | 19.4 | 0.17 | 3.56 | 9.64 | – | – | – | – | – | 6.3 ± 2.1% | 2.4% | 9.2 ± 2.2% | 5.4% | 13.4 ± 5.2% | 9.5% | able to cross the placenta and blood brain barrier | rapidly inactivated by phase II metabolism | effective in man |
| Cc1cc(=O)c(O)c(C(=O)NCCO)n1C [CP507, 1,6-Dimethyl-3-hydroxy-4(1H)-pyridinone-2-carboxy-(N-2′-hydroxyethyl)-amide hydrochloride] | 34.63 | 22.73 | 0.02 | – | – | 2.65 | 8.28 | 8.19 | 2.57 | – | – | – | – | – | – | – | – | – | – |
| COCCNC(=O)c1c(O)c(=O)cc(C)n1C [CP506, 1,6-Dimethyl-3-hydroxy-4(1H)-pyridinone-2-carboxy-(N-2′-methoxyethyl)-amide hydrochloride] | 34.88 | 22.57 | 0.04 | – | – | 2.62 | 8.34 | 8.35 | 2.5 | – | – | – | – | – | – | – | – | – | – |
| CNC(=O)c1c(O)c(=O)cc(C)n1C [CP502, 1,6-Dimethyl-3-hydroxy-4(1H)-pyridinone-2-carboxy-(N-methyl)-amide hydrochloride] | 35.78 | 23.42 | 0.04 | – | – | 2.83 | 8.38 | 8.36 | 2.64 | – | – | – | – | – | – | – | – | – | – |
| Cc1cc(=O)c(O)c(C(=O)N(C)C)n1C [CP508, 1,6-Dimethyl-3-hydroxy-4(1H)-pyridinone-2-carboxy-(N,N-dimethyl)-amide hydrochloride] | 35.13 | 23.46 | 0.16 | – | – | 2.61 | 8.1 | 8.1 | 2.61 | – | – | – | – | – | – | – | – | – | – |

Continued, in another order:

| Logβ3 [3] | pMpH 7.45 [5] | DpH 7.4 [6] | pKa, first value (s) (pKa of the ligand; method marked (s), first pKa) | pKa, second value (s) (pKa of the ligand; method marked (s), second pKa) | pKa (pKa of the ligand; [7]) | pKa (pKa of the ligand; [8]) | pKa (pKa of the ligand; [9]) | pKa (pKa of the ligand; [10]) | melting point | SMILES | Iron Mobilisation ([1]; 150 μmol/kg) | Efficacy ([1]; 150 μmol/kg) | Iron Mobilisation ([1]; 300 μmol/kg) | Efficacy ([1]; 300 μmol/kg) | Iron Mobilisation ([1]; 450 μmol/kg) | Efficacy ([1]; 450 μmol/kg) | crossing of placenta and blood brain barrier [2] | phase II metabolism [2] | effectiveness in man [4] |
| --- | --- | --- | --- | --- | --- | --- | --- | --- | --- | --- | --- | --- | --- | --- | --- | --- | --- | --- | --- |
| 34.67 | 21.48 | 0.075 | 2.96 | 8.69 | – | – | – | – | – | CC(O)c1c(O)c(=O)ccn1CCCO (centres unmarked) [CP372, 1-(3-hydroxypropyl)-2-(1-hydroxyethyl)-3-hydroxy-pyridin-4(1H)-one hydrochloride] | – | – | – | – | – | – | – | – | – |
| 35.3 | 20.75 | 0.048 | 2.93 | – | 3.13 | 9.22 | 9.12 | – | – | Cn1ccc(=O)c(O)c1CO [CP364, 1-Methyl-2-hydroxymethyl-3-hydroxy-pyridin-4(1H)-one hydrochloride] | – | – | – | – | – | – | – | – | – |
| 35.25 | 20.96 | 0.14 | 2.88 | 9.05 | – | – | – | – | – | CCn1ccc(=O)c(O)c1CO [CP359, 1-Ethyl-2-hydroxymethyl-3-hydroxy-pyridin-4(1H)-one hydrochloride] | – | – | – | – | – | – | – | – | – |
| 35.25 | 20.69 | 0.056 | 2.87 | 9.14 | – | – | – | – | 138 to 139 °C | O=c1ccn(CCCO)c(CO)c1O [CP366, 1-(3-hydroxypropyl)-2-hydroxymethyl-3-hydroxy-pyridin-4(1H)-one] | – | – | – | – | – | – | – | – | – |
